Test results published in paper PMC6273811, “Synthesis and Antitumor Evaluation of Novel 5-Hydrosulfonyl-1H-benzo[d]imidazol-2(3H)-one Derivatives” (Molecules, 2016).
In brackets after ≈: the same amount, converted by molar mass.

Assays:
HCC1937 = test: MTT cell proliferation assay, HCC1937; type: cell-based; details: Homo sapiens, 48 h, read-out: In vitro cytotoxic activity IC50, HCC1937
Method: (§1) Compounds 5a–o were evaluated for their cytotoxic activity in vitro against some human cancer cell lines, including A549, HCC1937 and MDA-MB-468 by applying a MTT colorimetric assay. Doxorubicin was used as positive control. The calculated IC50 values were reported differently according to the different cancer cells.
(§2) All target compounds were evaluated for their cytotoxic activities (%) in vitro against human cancer cell lines, including A549, HCC1937 and MDA-MB-468, by applying the MTT colorimetric assay. The cell concentration was adjusted to 2 × 10^4/mL using complete culture medium, then 100 μL cell suspension was inoculated in each well of a 96-well culture plate and cultured for 24 h. All the target compounds were adjusted to different concentrations ranging from 1.25 μmol/L to 40 μmol/L, then 100 μL solution was added to each well of 96-well culture plate and 100 μL complete culture medium was added to the control group. Cells were placed under 5% CO2 at 37 °C and cultured for 48 h. Then 5 mg/mL MTT 20 μL was added to each well of 96-well culture plate and cultured for another 2~4 h. The medium was removed and 150 μL DMSO was added to each well of 96-well culture plate, then oscillated and mixed 15 min. The absorbance (A) of each well was measured in terms of optical density at a wavelength of 570 nm, each cell viability assay was performed in triplicate and taken the average value, then calculated the IC50. Doxorubicin was the positive control drug.

A549 = test: MTT cell proliferation assay, A549; type: cell-based; details: Homo sapiens, 48 h, read-out: In vitro cytotoxic activity IC50, A549
Method: as §1, §2

[1] = In vitro cytotoxic activity, Hek293; type: cell-based; details: human, Hek293 cells; unit inferred
Source text: Table 1 In vitro cytotoxic activity of target compounds: 5a–o. | column: Hek293

MDA-MB-468 = test: MTT cell proliferation assay, MDA-MB-468; type: cell-based; details: Homo sapiens, 48 h, read-out: In vitro cytotoxic activity IC50, MDA-MB-48
Method: as §1, §2

[2] = tested on: A549, HCC1937 and MDA-MB-468 cell lines; test: MTT assay, statements over the three cell lines; type: cell-based, human; details: for Activity toward the cell lines (in words) / Potency compared to 5a and 5b: SAR discussion; for IC50: Homo sapiens, range over the three cell lines and over 5a and 5b, read-out: IC50 toward the A549, HCC1937 and MDA-MB-468 cell lines
Method: as §1, §2

HCC1937 cells = test: Annexin V-FITC/PI flow cytometry apoptosis; type: cell-based, human; details: control 6.7%
Method: When the concentration of 5b was 7.5 μM, the proportion of apoptotic cells was 11.4%. When the concentration was 10 μM, the proportion of apoptotic cells was 13.4%. When the concentration was 15 μM, the proportion of apoptotic cells was 12.9%. When the concentration was 20 μM, the proportion of apoptotic cells was 29%. The proportion of apoptotic cells in control group was 6.7%. As the concentration increased, the number of apoptotic cells increased gradually and the number of apoptotic cells and concentration were directly proportional, although there was no significant difference between 10 μM and 15 μM.
The Annexin V-FITC apoptosis detection kit was used to detect apoptotic cells according to the manufacturer’s protocol. Briefly, cells were gently washed with PBS and collected using trypsinization, disaggregated to a single cell suspension and incubated with 5 μL of Annexin V-FITC and 10 μL of a PI solution for 15 min in the dark. The apoptotic cells were detected using a flow cytometer (BD, San Diego, CA, USA), then quantified and the percentage of apoptotic cells measured.

SK-MEL-5 = tested on: SK-MEL-5; design: method as in PMID 9051914; details: cited from earlier work
KM20L2 = tested on: KM20L2; design: method as in PMID 9051914; details: cited from earlier work

Row | melting point [°C] | IC50 [2] [µM] | Structure (SMILES) | IC50 (HCC1937) [µM] | IC50 (A549) [µM] | IC50 [1] [µM] | IC50 (MDA-MB-468) [µM] | Activity toward the cell lines (in words) [2] | Proportion of apoptotic cells (HCC1937 cells; HCC1937, 7.5 μM) [%] | Proportion of apoptotic cells (HCC1937 cells; HCC1937, 10 μM) [%] | Proportion of apoptotic cells (HCC1937 cells; HCC1937, 15 μM) [%] | Proportion of apoptotic cells (HCC1937 cells; HCC1937, 20 μM) [%] | Potency compared to 5a and 5b [2] | ED50 (SK-MEL-5) [µg/mL] | ED50 (KM20L2) [µg/mL]
1 | 187 to 188.5 | – | O=c1[nH]c2cc(S(=O)(=O)NC3CCCCC3)ccc2n1CCc1ccccc1 [5k, N-Cyclohexyl-2-oxo-1-phenethyl-2,3-dihydro-1H-benzo[d]imidazole-5-sulfonamide] | > 200 | 116 ± 7.6 | 384 | 135 ± 9.7 | – | – | – | – | – | – | – | –
2 | 102.3 to 104.1 | – | O=c1[nH]c2cc(S(=O)(=O)N3CCOCC3)ccc2n1CCc1ccccc1 [5o, 5-(Morpholinosulfonyl)-1-phenethyl-1H-benzo[d]imidazol-2(3H)-one] | 11 ± 0.71 | 9.7 ± 0.88 | > 10000 | 15 ± 0.93 | – | – | – | – | – | – | – | –
3 | 217.8 to 218.9 | – | O=c1[nH]c2cc(S(=O)(=O)NC3CC3)ccc2n1CCc1ccccc1 [5m, N-Cyclopropyl-2-oxo-1-phenethyl-2,3-dihydro-1H-benzo[d]imidazole-5-sulfonamide] | > 200 | > 200 | 448 | > 200 | – | – | – | – | – | – | – | –
4 | 218.2 to 219.6 | – | CN1CCN(S(=O)(=O)c2ccc3c(c2)[nH]c(=O)n3CCc2ccccc2)CC1 [5l, 5-(4-Methylpiperazin-1-ylsulfonyl)-1-phenethyl-1H-benzo[d]imidazol-2(3H)-one] | 18 ± 1.2 | 15 ± 1.1 | 6310 | 22 ± 1.6 | – | – | – | – | – | – | – | –
5 | 173.4 to 174.7 | – | CC(C)NS(=O)(=O)c1ccc2c(c1)[nH]c(=O)n2Cc1ccccc1 [5i, Benzyl-N-isopropyl-2-oxo-2,3-dihydro-1H-benzo[d]imidazole-5-sulfonamide] | > 200 | > 200 | 709 | > 200 | almost no activity | – | – | – | – | – | – | –
6 | 168.6 to 170.3 | – | O=c1[nH]c2cc(S(=O)(=O)NC3CC3)ccc2n1Cc1ccccc1 [5h, Benzyl-N-cyclopropyl-2-oxo-2,3-dihydro-1H-benzo[d]imidazole-5-sulfonamide] | > 200 | > 200 | 370 | > 200 | almost no activity | – | – | – | – | – | – | –
7 | 223.6 to 225.7 | – | Cc1ccccc1NS(=O)(=O)c1ccc2c(c1)[nH]c(=O)n2Cc1ccccc1 [5j, Benzyl-2-oxo-N-o-tolyl-2,3-dihydro-1H-benzo[d]imidazole-5-sulfonamide] | > 200 | > 200 | 666 | > 200 | almost no activity | – | – | – | – | – | – | –
8 | 183.3 to 184.3 | – | O=c1[nH]c2cc(S(=O)(=O)N3CCCCC3)ccc2n1CCc1ccccc1 [5n, Phenethyl-5-(piperidin-1-ylsulfonyl)-1H-benzo[d]imidazol-2(3H)-one] | 22 ± 1.3 | 16 ± 0.9 | > 10000 | 12 ± 1.02 | – | – | – | – | – | – | – | –

More lines, now with the values behind:

Row | Structure (SMILES) | melting point [°C] | IC50 [2] [µM] | IC50 (HCC1937) [µM] | IC50 (A549) [µM] | IC50 [1] [µM] | IC50 (MDA-MB-468) [µM] | Activity toward the cell lines (in words) [2] | Proportion of apoptotic cells (HCC1937 cells; HCC1937, 7.5 μM) [%] | Proportion of apoptotic cells (HCC1937 cells; HCC1937, 10 μM) [%] | Proportion of apoptotic cells (HCC1937 cells; HCC1937, 15 μM) [%] | Proportion of apoptotic cells (HCC1937 cells; HCC1937, 20 μM) [%] | Potency compared to 5a and 5b [2] | ED50 (SK-MEL-5) [µg/mL] | ED50 (KM20L2) [µg/mL]
9 | O=c1[nH]c2cc(S(=O)(=O)Nc3ccccc3)ccc2n1Cc1ccccc1 [5g, Benzyl-2-oxo-N-phenyl-2,3-dihydro-1H-benzo[d]imidazole-5-sulfonamide] | 91.9 to 93.3 | – | 152 ± 9.8 | > 200 | 2000 | > 200 | almost no activity | – | – | – | – | – | – | –
10 | O=C(c1ccccc1)c1cccc(NS(=O)(=O)c2ccc3c(c2)[nH]c(=O)n3Cc2ccccc2)c1 [5f, N-(3-Benzoylphenyl)-1-benzyl-2-oxo-2,3-dihydro-1H-benzo[d]imidazole-5-sulfonamide] | 85.2 to 86.3 | – | > 200 | > 200 | > 10000 | 82 ± 6.1 | almost no activity | – | – | – | – | – | – | –
11 | CN1CCN(S(=O)(=O)c2ccc3c(c2)[nH]c(=O)n3Cc2ccccc2)CC1 [5b, Benzyl-5-(4-methylpiperazin-1-ylsulfonyl)-1H-benzo[d]imidazol-2(3H)-one] | 107.2 to 108.1 | 2.6 to 9 | 2.6 ± 0.21 | 3.1 ± 0.17 | 293 | 6.3 ± 0.45 | – | 11.4 | 13.4 | 12.9 | 29 | – | – | –
12 | O=c1[nH]c2cc(S(=O)(=O)NC3CCCCC3)ccc2n1Cc1ccccc1 [5c, Benzyl-N-cyclohexyl-2-oxo-2,3-dihydro-1H-benzo[d]imidazole-5-sulfonamide] | 166.7 to 167.2 | – | 105 ± 8.9 | 88 ± 6.1 | 248 | > 200 | – | – | – | – | – | equivalent to 10-fold inferior potency | – | –
13 | O=c1[nH]c2cc(S(=O)(=O)NCc3ccccc3)ccc2n1Cc1ccccc1 [5e, N,1-Dibenzyl-2-oxo-2,3-dihydro-1H-benzo[d]imidazole-5-sulfonamide] | 160.6 to 185.9 | – | 127 ± 9.9 | > 200 | > 10000 | > 200 | almost no activity | – | – | – | – | – | – | –
14 | O=c1[nH]c2cc(S(=O)(=O)N3CCCCC3)ccc2n1Cc1ccccc1 [5d, Benzyl-5-(piperidin-1-ylsulfonyl)-1H-benzo[d]imidazol-2(3H)-one] | 189.4 to 190.5 | – | 85 ± 7.1 | 77 ± 6.8 | 756 | 73 ± 6.9 | – | – | – | – | – | equivalent to 10-fold inferior potency | – | –
15 | COc1cccc2c1C(=O)c1c(O)c3c(c(O)c1C2=O)C[C@@](O)(C(=O)CO)C[C@@H]3O[C@H]1C[C@H](N)[C@H](O)[C@H](C)O1 [Doxorubicin, reference compound] | – | – | 4.8 ± 0.22 | 2.5 ± 0.13 | 12.2 | 2.7 ± 0.19 | – | – | – | – | – | – | – | –
16 | O=c1[nH]c2cc(S(=O)(=O)N3CCOCC3)ccc2n1Cc1ccccc1 [5a, Benzyl-5-(morpholinosulfonyl)-1H-benzo[d]imidazol-2(3H)-one] | 198.5 to 200.1 | 2.6 to 9 | 7.8 ± 0.49 | 5.2 ± 0.35 | > 10000 | 9 ± 0.67 | – | – | – | – | – | – | – | –
17 | O=C1N[C@H]2n3c(cc(Br)c3Br)C(=O)N3CCC[C@]23N1 [Dibromophakellstatin] | – | – | – | – | – | – | – | – | – | – | – | – | 0.11 (≈ 0.282 µM) | 0.11 (≈ 0.282 µM)
